Data: publication PMC9054915 (Cancer Chemotherapy and Pharmacology, 2022)
Where two headings read alike, the source gives them in different places.

Assays:
[1] = biological target: T1, CYP3A4 (Homo sapiens, UniProt P08684); details: cited from earlier work
[2] = system: Caco-2; set-up: method as in earlier work; details: enzalutamide PBPK model input; cited from earlier work
[3] = cited from earlier work
[4] = cited from earlier work; remark: listed apart in the source
[5] = system: CYP3A4; details: cited from earlier work
[6] = biological target: T1, CYP3A4; details: ipatasertib 100 mg single oral dose with and without itraconazole 200 mg QD, cited from earlier work
[7] = male, human, in vivo, iv
[8] = Biliary excretion of unchanged ipatasertib; format: in vivo; details: rats and monkeys dosed with 10 mg/kg and 5 mg/kg
Source text: (§1) This is due to the difficulty in differentiating between the inhibition and induction from the clinical data and that the PBPK model parameters were optimized to represent a net inhibition effect.

[9] = cited from earlier work; for Observed AUC0-∞ / Observed AUC0-24: geometric mean (CV%); for Observed AUC0-24: Steady state
[10] = Solubility of ipatasertib; format: physicochemical; details: across the pH range of 1.1–7.0
Source text: (§2) The physiochemical and ADME parameters used for the development of the initial PBPK model are summarized Table S1. […] The volume of distribution at steady state (Vss) was obtained from the clinical absolute bioavailability study (ClinicalTrials.gov Identifier: NCT02390492). A tissue to plasma partition coefficient (Kp) scalar was applied to match the predicted Vss (predicted with in Simcyp using Method 3, Rodgers et al. + ion membrane permeability) to the observed value. The IV clearance determined in the clinical absolute bioavailability study was used (ClinicalTrials.gov Identifier: NCT02390492). […] The CYP3A4 inhibition parameters for competitive inhibition and TDI determined using in vitro assays (Data on file) were incorporated into the model.

[11] = system: MDCK (Madin-Darby Canine Kidney); assay: MDCK permeability
Source text: as §2

[12] = MDCK permeability; details: dog, MDCK
Source text: as §2

[13] = Human mass balance and absolute bioavailability study (NCT02390492)
[14] = cited from earlier work; remark: listed apart in the source
[15] = Blood-to-plasma partition ratio and fraction unbound in plasma; format: in vitro ADME; details: mean at concentration from 0.1 to 40 µM, data on file, read-out: fu,plasma
[16] = system: CYP3A4; assay: In vitro CYP3A4 induction; format: in vitro ADME
Source text: as §1

[17] = biological target: P-glycoprotein (P-gp) (Homo sapiens, UniProt P08183); assay: In vitro P-glycoprotein substrate assessment; format: in vitro ADME
Sequence of P-glycoprotein (P-gp) (P08183 whole entry): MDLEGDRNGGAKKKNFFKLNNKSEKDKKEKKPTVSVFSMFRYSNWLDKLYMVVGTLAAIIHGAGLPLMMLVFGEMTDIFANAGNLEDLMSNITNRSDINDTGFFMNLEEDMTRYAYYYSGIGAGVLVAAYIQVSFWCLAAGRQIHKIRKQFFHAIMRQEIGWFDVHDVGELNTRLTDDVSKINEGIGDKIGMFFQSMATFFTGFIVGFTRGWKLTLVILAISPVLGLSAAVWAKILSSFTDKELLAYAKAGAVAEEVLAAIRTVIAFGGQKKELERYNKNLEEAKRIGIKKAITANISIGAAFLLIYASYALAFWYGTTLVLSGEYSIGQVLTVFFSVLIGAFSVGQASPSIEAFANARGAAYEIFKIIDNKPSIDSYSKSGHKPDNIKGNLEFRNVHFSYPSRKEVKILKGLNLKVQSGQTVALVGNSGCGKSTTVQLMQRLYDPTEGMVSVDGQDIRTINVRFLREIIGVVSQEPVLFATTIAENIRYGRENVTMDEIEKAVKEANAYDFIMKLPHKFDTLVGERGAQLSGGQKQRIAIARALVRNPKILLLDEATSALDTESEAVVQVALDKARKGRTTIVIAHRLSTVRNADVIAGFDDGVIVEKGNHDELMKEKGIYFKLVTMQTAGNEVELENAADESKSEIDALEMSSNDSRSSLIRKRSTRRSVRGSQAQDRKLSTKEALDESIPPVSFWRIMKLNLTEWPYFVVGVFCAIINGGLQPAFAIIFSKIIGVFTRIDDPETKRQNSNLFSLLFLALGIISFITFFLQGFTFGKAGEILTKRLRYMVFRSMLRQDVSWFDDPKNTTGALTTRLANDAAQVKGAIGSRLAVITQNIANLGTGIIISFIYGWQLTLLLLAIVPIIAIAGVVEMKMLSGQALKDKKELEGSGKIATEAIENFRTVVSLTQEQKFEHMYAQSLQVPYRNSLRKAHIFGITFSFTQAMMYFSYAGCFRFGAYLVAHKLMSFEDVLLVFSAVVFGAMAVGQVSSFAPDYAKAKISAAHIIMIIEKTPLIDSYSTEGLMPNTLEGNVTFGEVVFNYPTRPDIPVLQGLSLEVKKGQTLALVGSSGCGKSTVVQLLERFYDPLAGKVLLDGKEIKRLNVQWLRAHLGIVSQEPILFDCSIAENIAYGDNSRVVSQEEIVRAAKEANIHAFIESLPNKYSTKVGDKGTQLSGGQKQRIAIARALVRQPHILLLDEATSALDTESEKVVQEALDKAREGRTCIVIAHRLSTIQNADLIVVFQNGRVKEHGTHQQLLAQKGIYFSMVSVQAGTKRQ
Source text: as §1

[18] = biological target: T1, CYP3A4; assay: Clinical study: ipatasertib 300 mg QD with palbociclib (NCT04060862); details: in vivo
[19] = Physicochemical parameters (LogP, pKa, compound type; in-house data)
Source text: as §2

[20] = clinical; details: human, in vivo, po, 200 mg
[21] = biological target: T1, CYP3A4
Source text: as §2
(§3) The age range of 37–76 and the proportion of females of 0.69 were used in the simulation.

[22] = palbociclib PBPK model input; cited from earlier work
[23] = biological target: T1, CYP3A4; assay: clinical; details: female, in vivo, 125 mg
[24] = biological target: T1, CYP3A4; details: cited from earlier work; for AUC ratio Observation: midazolam AUC0–∞ with/without ipatasertib 600 mg QD; for AUC ratio Observation / Cmax ratio Observation: geometric mean ratio (90% CI); for Cmax ratio Observation: midazolam Cmax with/without ipatasertib 600 mg QD
[25] = biological target: T1, CYP3A4; assay: PBPK simulation: midazolam with ipatasertib 600 mg QD
Method: as §3
Therefore, sensitivity analyses of inhibitory parameters, where only one parameter (Ki or Kinact) varied at a time, were performed for all three models described above.

[26] = enzalutamide 160 mg QD with ipatasertib, clinical observation, geometric mean (CV%)

T1 sequence (P08684 whole entry): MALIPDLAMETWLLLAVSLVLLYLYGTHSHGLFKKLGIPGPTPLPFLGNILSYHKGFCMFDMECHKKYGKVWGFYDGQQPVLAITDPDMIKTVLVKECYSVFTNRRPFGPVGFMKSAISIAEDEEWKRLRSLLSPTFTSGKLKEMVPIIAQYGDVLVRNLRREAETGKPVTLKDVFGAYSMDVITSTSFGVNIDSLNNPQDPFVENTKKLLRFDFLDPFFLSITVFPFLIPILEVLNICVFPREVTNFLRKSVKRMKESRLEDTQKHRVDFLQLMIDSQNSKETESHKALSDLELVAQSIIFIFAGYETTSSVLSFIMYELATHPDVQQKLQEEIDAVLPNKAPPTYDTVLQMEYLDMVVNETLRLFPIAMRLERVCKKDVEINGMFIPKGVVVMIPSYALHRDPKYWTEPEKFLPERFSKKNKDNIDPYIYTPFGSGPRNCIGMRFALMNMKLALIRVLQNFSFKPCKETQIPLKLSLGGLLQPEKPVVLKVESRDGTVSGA

For CNC(=O)c1ccc(N2C(=S)N(c3ccc(C#N)c(C(F)(F)F)c3)C(=O)C2(C)C)cc1F [Enzalutamide], the “Observed AUCss” value [1, 26] is given as 341 (25%) µg*hr/ml, the “Observed Cmax” value [1, 26] is given as 17 (22%) µg/ml and the Caco-2 permeability [2] is given as 31 10^-6 cm/s. The CLpo ([3]; enzalutamide, in vivo clearance) was 0.54 L/h, the “fu, plasma” value ([4]; enzalutamide PBPK model input) was 0.024 and the “Ind max (CYP3A4 induction)” value ([5]; enzalutamide PBPK model input) was 8. The EC50 ([5]; enzalutamide PBPK model input, read-out: Ind C50 (CYP3A4 induction)) was 2.5 µM and the Ki ([5]; enzalutamide PBPK model input, read-out: Ki (CYP3A4 competitive inhibition)) was 42 µM.

In the case of CC(C)NC[C@@H](C(=O)N1CCN(c2ncnc3c2[C@H](C)C[C@H]3O)CC1)c1ccc(Cl)cc1 [Ipatasertib], the “AUC Observation” value ([6]; ipatasertib AUC0–∞, geometric mean (CV%)) is given as 327 (26.4%) ng* h/ml, the “Cmax Observation” value ([6]; ipatasertib Cmax, geometric mean (CV%)) is given as 44.9 (35.9%) ng/ml and the “Tmax Observation” value ([6]; ipatasertib Tmax, median (range)) is given as 1.07 (0.50–3.03) h. For the same compound, the CLiv [7] was 100 L/h, the “unchanged drug found in bile” value [8] was 2.9–5.8% and the “observed decrease in ipatasertib Cmax” value ([1]; in the presence of enzalutamide, patients with prostate cancer) was about 53%. The “AUC Observation” value ([1]; ipatasertib AUC0–24 h, ipatasertib 400 mg QD with and without enzalutamide 160 mg QD, geometric mean (CV%)) was 2170 (53.8%) ng* h/ml, the “Cmax Observation” value ([1]; ipatasertib Cmax, ipatasertib 400 mg QD with and without enzalutamide 160 mg QD, patients with prostate cancer, geometric mean (CV%)) was 284 (66.5%) ng/ml and the “Tmax Observation” value ([1]; ipatasertib Tmax, ipatasertib 400 mg QD with and without enzalutamide 160 mg QD, median (range)) was 1.85 (0.63–4.00) h. For the same compound, the “dose proportionality of exposure” value ([9]; 200 to 800 mg, single dose or multiple doses) was “approximately dose-proportional”, the “Observed AUC0-∞” value ([9]; Day 1, 25 mg oral (n=3)) was 34.0 (107%) ng*hr/ml and the “Observed AUC0-∞” value ([9]; Day 1, 50 mg oral (n=3)) was 84.6 (50.1%) ng*hr/ml. The “Observed AUC0-∞” value ([9]; Day 1, 100 mg oral (n=3)) was 365 (21.5%) ng*hr/ml, the “Observed AUC0-∞” value ([9]; Day 1, 200 mg oral (n=3)) was 999 (21.2%) ng*hr/ml and the “Observed AUC0-∞” value ([9]; Day 1, 400 mg oral (n=3)) was 2230 (14.1%) ng*hr/ml. The “Observed AUC0-∞” value ([9]; Day 1, 600 mg oral (n=7)) was 3460 (36.4%) ng*hr/ml, the “Observed AUC0-∞” value ([9]; Day 1, 800 mg oral (n=7)) was 4100 (68.6%) ng*hr/ml and the “Observed AUC0-24” value ([9]; 25 mg (n=3)) was 88.3 (77.8%) ng*hr/ml. For the same compound, the “Observed AUC0-24” value ([9]; 50 mg (n=3)) was 171 (11%) ng*hr/ml, the “Observed AUC0-24” value ([9]; 200 mg (n=3)) was 1770 (14.6%) ng*hr/ml and the “Observed AUC0-24” value ([9]; 400 mg (n=3)) was 3210 (22.3%) ng*hr/ml. For the same compound, the “Observed AUC0-24” value ([9]; 600 mg (n=7)) was 4450 (43.8%) ng*hr/ml, the “Observed AUC0-24” value ([9]; 800 mg (n=7)) was 6670 (66.1%) ng*hr/ml and the “dose proportionality of exposure” value ([9]; low doses of 25–50 mg) was “more than dose-proportional increase in exposures”. For the same compound, the solubility [10] was over 10000 µg/mL, the “permeability (in words)” value [11] was “moderate permeability” and the Papp [12] was 3.55 ×10⁻⁶ cm/s. For the same compound, the Vd ([13]; human, in vivo, intravenous, 0.08 mg) was 39.1 L/kg, the bioavailability ([13]; human, in vivo, oral, 200 mg) was 34% and the “unchanged drug eliminated in urine” value ([13]; single 200 mg oral dose) was about 8%. The “effect of food on exposures” value [14] was “Food does not affect exposures”, the fraction unbound [15] was 0.63 and the “CYP3A4 induction in vitro” value [16] was “weak CYP3A4 inducer in vitro”. The P-gp substrate status [17] was “substrate of P-glycoprotein (P-gp)”, the AUC [18] was 2510 ng·h/mL and the Cmax [18] was 314 ng/mL. For the same compound, the Tmax [18] was 1.5 h, the Compound type [19] was “Diprotic base” and the logP [19] was 3. The pKa ([19]; read-out: pKa1) was 9, the pKa ([19]; read-out: pKa2) was 4.9 and the CL renal [20] was 322 mL/min. The CYP3A4 substrate/inhibitor status [21] was “a substrate and a competitive and time-dependent inhibitor (TDI) of CYP3A4” and the “Kapp (CYP3A4 time-dependent inhibition)” value [21] was 9.66 µM.

In the case of CC(=O)c1c(C)c2cnc(Nc3ccc(N4CCNCC4)cn3)nc2n(C2CCCC2)c1=O [Palbociclib], the logP [22] is given as 0.99, the CLR ([3]; palbociclib PBPK model input) is given as 6.6 L/h and the Fa ([3]; palbociclib PBPK model input) is given as 0.85. For the same compound, the Ka ([3]; palbociclib PBPK model input) was 0.12 h⁻¹, the Vss ([3]; palbociclib PBPK model input) was 14.558 L/kg and the AUC [23] was 2560 ng·h/mL. The Cmax [23] was 123 ng/mL, the “fu, plasma” value ([4]; palbociclib PBPK model input) was 0.147 and the “Kapp (CYP3A4 time-dependent inhibition)” value ([5]; palbociclib PBPK model input) was 10 µM.

COCCc1ccc(OCC(O)CNC(C)C)cc1 (stereo not drawn) [metoprolol] showed a Papp [12] of 24.8 ×10⁻⁶ cm/s.

In the case of Cc1ncc2n1-c1ccc(Cl)cc1C(c1ccccc1F)=NC2 [Midazolam], the “AUC ratio Observation” value [24] is listed as 2.22 (1.57–3.12), the “AUC ratio Observation” value ([24]; listed as midazolam) is listed as 2.22 and the “AUC Observation” value ([24]; midazolam AUC0–∞, midazolam 2 mg single oral dose with and without ipatasertib 600 mg QD, geometric mean (CV%)) is listed as 39.3 (58.4%) ng* h/ml. The “Cmax ratio Observation” value [24] was 1.29 (0.97–1.71), the “Cmax ratio Observation” value ([24]; listed as midazolam) was 1.29 and the “Cmax Observation” value ([24]; midazolam Cmax, midazolam 2 mg single oral dose with and without ipatasertib 600 mg QD, geometric mean (CV%)) was 15.0 (51.6%) ng/ml. For the same compound, the “Tmax Observation” value ([24]; midazolam Tmax, midazolam 2 mg single oral dose with and without ipatasertib 600 mg QD, median (range)) was 0.50 (0.50–1.00) h, the Papp [12] was 18.8 ×10⁻⁶ cm/s and the “AUC P/O” value ([25]; predicted/observed midazolam AUC0–∞, midazolam 2 mg with and without ipatasertib 600 mg QD) was 0.59. The “AUC ratio P/O” value ([25]; predicted/observed midazolam AUC ratio, ipatasertib 600 mg QD) was 1.00 and the “Cmax ratio P/O” value ([25]; predicted/observed midazolam Cmax ratio, ipatasertib 600 mg QD) was 1.33.

With CN/C(=N/CCSCc1nc[nH]c1C)NC#N [cimetidine] the Papp [12] was 1 ×10⁻⁶ cm/s.

In the case of CC(C)NCC(O)COc1cccc2ccccc12 (stereo not drawn) [propranolol], the Papp [12] is reported as 20.9 ×10⁻⁶ cm/s.
